Measured values as given in ChEMBL document CHEMBL1127716, “-Ketothiazole inhibitors of prolyl endopeptidase” (Bioorg Med Chem Lett, 1994).

Molecular target: Prolyl endopeptidase (Sus scrofa, UniProt P23687)
Assay: Compound was evaluated for the inhibition of Prolyl endopeptidase (PEP) from pig kidney using Z-Gly-Pro-p-nitroanilide as substrate

Chain of Prolyl endopeptidase (P23687 whole entry): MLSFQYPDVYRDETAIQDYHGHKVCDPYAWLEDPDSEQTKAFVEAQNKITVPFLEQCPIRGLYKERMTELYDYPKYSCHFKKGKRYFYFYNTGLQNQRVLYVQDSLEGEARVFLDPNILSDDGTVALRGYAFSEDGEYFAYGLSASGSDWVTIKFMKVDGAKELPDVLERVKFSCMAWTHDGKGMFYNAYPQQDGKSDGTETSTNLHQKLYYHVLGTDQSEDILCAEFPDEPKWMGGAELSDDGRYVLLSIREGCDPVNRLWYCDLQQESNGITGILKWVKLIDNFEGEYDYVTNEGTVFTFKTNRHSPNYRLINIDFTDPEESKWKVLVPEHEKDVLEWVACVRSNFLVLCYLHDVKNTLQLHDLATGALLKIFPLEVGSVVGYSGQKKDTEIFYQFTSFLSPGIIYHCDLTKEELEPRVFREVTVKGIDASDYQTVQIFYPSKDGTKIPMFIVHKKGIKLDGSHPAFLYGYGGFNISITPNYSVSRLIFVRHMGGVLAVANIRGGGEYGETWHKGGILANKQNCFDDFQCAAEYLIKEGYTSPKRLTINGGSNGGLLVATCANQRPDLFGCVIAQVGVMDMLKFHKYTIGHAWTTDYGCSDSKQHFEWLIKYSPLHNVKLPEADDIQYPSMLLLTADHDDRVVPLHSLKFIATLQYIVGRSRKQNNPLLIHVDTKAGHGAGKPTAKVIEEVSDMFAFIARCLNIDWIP

| IC50 [nM] | SMILES |
| --- | --- |
| 5.9 | O=C(c1cscn1)[C@@H]1CCCN1C(=O)[C@@H]1CCCN1C(=O)CCCc1ccccc1 |
| 9.6 | CCOC(=O)C(=O)[C@@H]1CCCN1C(=O)[C@@H]1CCCN1C(=O)CCCc1ccccc1 |
